Data on 15 compounds can be found in US20230203098A1, “HUMAN TRANSFERRIN RECEPTOR BINDING PEPTIDE” (priority 2020, published 2023).

*1 amine or outer side, *2 acyl side, *3 side chain or, on linkers, in order; H or OH if unused. Where a SMILES comes first, the peptide text is derived from it. Bridges are numbered along the chain shown (N, C = ends). Side-chain parts run from the residue outwards. [ ]: non-standard residue; d: D form. The star is where a group is joined. PEG12 = NCCOCCOCCOCCOCCOCCOCCOCCOCCOCCOCCOCCOCCC(=O)O; Phe(4-Cl) = N[C@@H](Cc1ccc(Cl)cc1)C(=O)O; Lys(N3) = [N-]=[N+]=NCCCC[C@H](N)C(=O)O; NMeY = CN[C@@H](Cc1ccc(O)cc1)C(=O)O; NMeF = CN[C@@H](Cc1ccccc1)C(=O)O; Piperazinyl(4-Me) = CN1CCN(*)CC1; Ahp(2) = CCCCC[C@H](N)C(=O)O; Chg = N[C@H](C(=O)O)C1CCCCC1; PEG4 = NCCOCCOCCOCCOCCC(=O)O; Aib = CC(C)(N)C(=O)O; CO = O=C([*:1])[*:2]

Chain of transferrin receptor (hTfR) (P02786 whole entry): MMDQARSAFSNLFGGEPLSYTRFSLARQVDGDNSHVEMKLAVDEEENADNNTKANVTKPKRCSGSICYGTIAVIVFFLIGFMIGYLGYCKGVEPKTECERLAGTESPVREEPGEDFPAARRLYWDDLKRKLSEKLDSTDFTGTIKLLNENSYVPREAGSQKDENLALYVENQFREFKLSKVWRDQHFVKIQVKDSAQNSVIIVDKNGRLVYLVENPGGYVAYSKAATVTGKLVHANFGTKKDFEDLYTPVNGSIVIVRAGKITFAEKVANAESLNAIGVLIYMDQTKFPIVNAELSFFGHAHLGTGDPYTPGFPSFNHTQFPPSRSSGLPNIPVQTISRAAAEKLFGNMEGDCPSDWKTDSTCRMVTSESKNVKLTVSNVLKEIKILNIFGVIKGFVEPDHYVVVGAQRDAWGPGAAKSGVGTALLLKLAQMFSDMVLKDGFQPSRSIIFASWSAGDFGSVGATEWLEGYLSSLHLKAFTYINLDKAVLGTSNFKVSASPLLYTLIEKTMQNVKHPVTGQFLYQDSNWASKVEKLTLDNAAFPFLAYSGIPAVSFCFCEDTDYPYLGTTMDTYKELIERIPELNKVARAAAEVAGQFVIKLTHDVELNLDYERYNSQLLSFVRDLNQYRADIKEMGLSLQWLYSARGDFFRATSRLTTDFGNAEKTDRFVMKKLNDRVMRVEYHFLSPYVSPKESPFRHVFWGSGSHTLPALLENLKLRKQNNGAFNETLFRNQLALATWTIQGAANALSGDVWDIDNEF

The target of one experiment is transferrin receptor (hTfR) (Homo sapiens, UniProt P02786). The experiment is described as follows: Intermolecular interaction evaluation test between transferrin receptor (hTfR) and peptide by surface plasmon resonance (SPR). The settings on record: binding to hTfR by SPR; Table 2 peptides; read-out: KD value (SPR) class. The class given is binding. The procedure, abridged:
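Receptor was Ni-captured and EDC/NHS-fixed on an NTA chip; running buffer HEPES pH 8.0 with NaCl, Tween 20, BSA and 1.0% DMSO.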
On the technique in general: SPR reads the build-up and loss of mass on a sensor chip optically.
Turning to `CC[C@H](C)[C@@H]1NC(=O)[C@H](C2CCCCC2)NC(=O)[C@H](Cc2ccc(O)cc2)NC(=O)[C@H](Cc2ccc(O)cc2)NC(=O)[C@H](CC(N)=O)NC(=O)[C@H](Cc2c[nH]c3ccccc23)NC(=O)[C@H](C2CCCCC2)NC(=O)[C@H](Cc2ccccc2)N(C)C(=O)[C@H](C(C)C)NC(=O)[C@H](C)NC(=O)CSC[C@@H](C(N)=O)NC(=O)[C@H](Cc2ccc(O)cc2)N(C)C(=O)[C@H](Cc2ccc(O)cc2)NC(=O)[C@H](CCCNC(=N)N)NC(=O)[C@H](CCCNC(=N)N)NC1=O` [compound 267] ({CH2CO}-AV[NMeF][Chg]WNYY[Chg]IRRY[NMeY]C-NH2; thioether N-15), the Kd (commonly the concentration at which binding is half-saturated) fell in the range of 100 to 1000 nM. The same measure, in the same setting: then `CC[C@H](C)[C@@H]1NC(=O)[C@H](Cc2ccc(O)cc2)NC(=O)[C@H](Cc2ccc(O)cc2)NC(=O)[C@H](CC(N)=O)NC(=O)[C@H](Cc2c[nH]c3ccc(Cl)cc23)NC(=O)[C@H](C(C)C)NC(=O)[C@H](Cc2ccccc2)N(C)C(=O)[C@H](C(C)C)NC(=O)[C@H](C)NC(=O)CSC[C@@H](C(N)=O)NC(=O)[C@H](Cc2ccc(O)cc2)N(C)C(=O)[C@H](Cc2ccc(O)cc2)NC(=O)[C@H](CCCNC(=N)N)NC(=O)[C@H](CCCNC(=N)N)NC(=O)[C@H]([C@@H](C)CC)NC1=O` [compound 268], with 1 to 100 nM; and `CC[C@H](C)[C@@H]1NC(=O)[C@H](Cc2ccc(O)cc2)NC(=O)[C@H](Cc2ccc(O)cc2)NC(=O)[C@H](CC(N)=O)NC(=O)[C@H](Cc2c[nH]c3ccc(F)cc23)NC(=O)[C@H](C(C)C)NC(=O)[C@H](Cc2ccccc2)N(C)C(=O)[C@H](C(C)C)NC(=O)[C@H](C)NC(=O)CSC[C@@H](C(N)=O)NC(=O)[C@H](Cc2ccc(O)cc2)N(C)C(=O)[C@H](Cc2ccc(O)cc2)NC(=O)[C@H](CCCNC(=N)N)NC(=O)[C@H](CCCNC(=N)N)NC(=O)[C@H]([C@@H](C)CC)NC1=O` [compound 269], with 1 to 100 nM. The same measure, in the same setting: with `CC[C@H](C)[C@@H]1NC(=O)[C@H](Cc2ccc(O)cc2)NC(=O)[C@H](Cc2ccc(O)cc2)NC(=O)[C@H](CC(N)=O)NC(=O)[C@H](Cc2c[nH]c3cc(F)ccc23)NC(=O)[C@H](C(C)C)NC(=O)[C@H](Cc2ccccc2)N(C)C(=O)[C@H](C(C)C)NC(=O)[C@H](C)NC(=O)CSC[C@@H](C(N)=O)NC(=O)[C@H](Cc2ccc(O)cc2)N(C)C(=O)[C@H](Cc2ccc(O)cc2)NC(=O)[C@H](CCCNC(=N)N)NC(=O)[C@H](CCCNC(=N)N)NC(=O)[C@H]([C@@H](C)CC)NC1=O` [compound 270] the figure was 1 to 100 nM. Still for that read-out and setting: with `CC[C@H](C)[C@@H]1NC(=O)[C@H](Cc2ccc(O)cc2)NC(=O)[C@H](Cc2ccc(O)cc2)NC(=O)[C@H](CC(N)=O)NC(=O)[C@H](Cc2cn(CCO)c3ccccc23)NC(=O)[C@H](C(C)C)NC(=O)[C@H](Cc2ccccc2)N(C)C(=O)[C@H](C(C)C)NC(=O)[C@H](C)NC(=O)CSC[C@@H](C(N)=O)NC(=O)[C@H](Cc2ccc(O)cc2)N(C)C(=O)[C@H](Cc2ccc(O)cc2)NC(=O)[C@H](CCCNC(=N)N)NC(=O)[C@H](CCCNC(=N)N)NC(=O)[C@H]([C@@H](C)CC)NC1=O` [compound 271] the figure was 1 to 100 nM; with `CC[C@H](C)[C@@H]1NC(=O)[C@H](Cc2ccc(O)cc2)NC(=O)[C@H](Cc2ccc(O)cc2)NC(=O)[C@H](Cc2c[nH]cn2)NC(=O)[C@H](Cc2c[nH]c3ccccc23)NC(=O)[C@H](C(C)C)NC(=O)[C@H](Cc2ccccc2)N(C)C(=O)[C@H](C(C)C)NC(=O)[C@H](C)NC(=O)CSC[C@@H](C(N)=O)NC(=O)[C@H](Cc2ccc(O)cc2)N(C)C(=O)[C@H](Cc2ccc(O)cc2)NC(=O)[C@H](CCCNC(=N)N)NC(=O)[C@H](CCCNC(=N)N)NC(=O)[C@H]([C@@H](C)CC)NC1=O` [compound 274], 100 to 1000 nM; with `CCCCC[C@@H]1NC(=O)[C@H](CC(N)=O)NC(=O)[C@H](Cc2c[nH]c3ccccc23)NC(=O)[C@H](C(C)C)NC(=O)[C@H](Cc2ccccc2)N(C)C(=O)[C@H](C(C)C)NC(=O)[C@H](C)NC(=O)CSC[C@@H](C(=O)NCC(=O)N[C@@H](CCCCN=[N+]=[N-])C(N)=O)NC(=O)[C@H](Cc2ccc(O)cc2)N(C)C(=O)[C@H](Cc2ccc(O)cc2)NC(=O)[C@H](CCCNC(=N)N)NC(=O)[C@H](CCCNC(=N)N)NC(=O)[C@H]([C@@H](C)CC)NC(=O)[C@H]([C@@H](C)CC)NC(=O)[C@H](Cc2ccc(O)cc2)NC1=O` [compound 276] ({CH2CO}-AV[NMeF]VWN[Ahp(2)]YIIRRY[NMeY]CG[Lys(N3)]-NH2; thioether N-15), 100 to 1000 nM. For the compound `CC[C@H](C)[C@@H]1NC(=O)[C@H](Cc2ccc(O)cc2)NC(=O)[C@H](Cc2ccc(Cl)cc2)NC(=O)[C@H](CC(N)=O)NC(=O)[C@H](Cc2c[nH]c3ccccc23)NC(=O)[C@H](C(C)C)NC(=O)[C@H](Cc2ccccc2)N(C)C(=O)[C@H](C(C)C)NC(=O)[C@H](C)NC(=O)CSC[C@@H](C(=O)NCC(=O)N[C@@H](CCCCN=[N+]=[N-])C(N)=O)NC(=O)[C@H](Cc2ccc(O)cc2)N(C)C(=O)[C@H](Cc2ccc(O)cc2)NC(=O)[C@H](CCCNC(=N)N)NC(=O)[C@H](CCCNC(=N)N)NC(=O)[C@H]([C@@H](C)CC)NC1=O` [compound 277] ({CH2CO}-AV[NMeF]VWN[Phe(4-Cl)]YIIRRY[NMeY]CG[Lys(N3)]-NH2; thioether N-15), the Kd was 100 to 1000 nM. The same measure, in the same setting: then `CC[C@H](C)[C@@H]1NC(=O)[C@H](C2CCCCC2)NC(=O)[C@H](Cc2ccc(O)cc2)NC(=O)[C@H](Cc2ccc(O)cc2)NC(=O)[C@H](CC(N)=O)NC(=O)[C@H](Cc2c[nH]c3ccccc23)NC(=O)[C@H](C(C)C)NC(=O)[C@H](Cc2ccccc2)N(C)C(=O)[C@H](C(C)C)NC(=O)[C@H](C)NC(=O)CSC[C@@H](C(N)=O)NC(=O)[C@H](Cc2ccc(O)cc2)N(C)C(=O)[C@H](Cc2ccc(O)cc2)NC(=O)[C@H](CCCNC(=N)N)NC(=O)[C@H](CCCNC(=N)N)NC1=O` [compound 282], with 1 to 100 nM; and `CC[C@H](C)[C@@H]1NC(=O)[C@H](C2CCCCC2)NC(=O)[C@H](Cc2ccc(O)cc2)NC(=O)[C@H](Cc2ccc(O)cc2)NC(=O)[C@H](CC(N)=O)NC(=O)[C@H](Cc2c[nH]c3ccccc23)NC(=O)[C@H](C(C)C)NC(=O)[C@H](Cc2ccccc2)N(C)C(=O)[C@H](C(C)C)NC(=O)[C@H](C)NC(=O)CSC[C@@H](C(=O)NCCOCCOCCOCCOCCOCCOCCOCCOCCOCCOCCOCCOCCC(N)=O)NC(=O)[C@H](Cc2ccc(O)cc2)N(C)C(=O)[C@H](Cc2ccc(O)cc2)NC(=O)[C@H](CCCNC(=N)N)NC(=O)[C@H](CCCNC(=N)N)NC1=O` [compound 283] ({CH2CO}-AV[NMeF]VWNYY[Chg]IRRY[NMeY]C[PEG12]-NH2; thioether N-15), with 1 to 100 nM. The same measure, in the same setting: with `CC[C@H](C)[C@@H]1NC(=O)[C@H](Cc2ccc(O)cc2)NC(=O)[C@H](Cc2ccc(O)cc2)NC(=O)[C@H](CC(N)=O)NC(=O)[C@H](Cc2c[nH]c3ccccc23)NC(=O)[C@H](C(C)C)NC(=O)[C@H](Cc2ccccc2)N(C)C(=O)[C@H](C(C)C)NC(=O)[C@H](C)NC(=O)CSC[C@@H](C(=O)NCCOCCOCCOCCOCCC(N)=O)NC(=O)[C@H](Cc2ccc(O)cc2)N(C)C(=O)[C@H](Cc2ccc(O)cc2)NC(=O)[C@H](CCCCNC(=O)N2CCN(C)CC2)NC(=O)C(C)(C)NC(=O)[C@H]([C@@H](C)CC)NC1=O` [compound 290] ({CH2CO}-AV[NMeF]VWNYYII[Aib]K([CO-Piperazinyl(4-Me)])Y[NMeY]C[PEG4]-NH2; thioether N-15) the figure was greater than 1000 nM.

The experiment is the same for the next values; noted with them: surface plasmon resonance, peptide vs hTfR; read-out: KD value, hTfR binding by SPR (class symbol).
`CC[C@H](C)[C@@H]1NC(=O)[C@H](Cc2ccc(O)cc2)NC(=O)[C@H](Cc2ccc(O)cc2)NC(=O)[C@H](CC(N)=O)NC(=O)[C@H](Cc2c[nH]c3ccccc23)NC(=O)[C@H](C(C)C)NC(=O)[C@H](Cc2ccccc2)N(C)C(=O)[C@H](C(C)C)NC(=O)[C@H](C)NC(=O)CSC[C@@H](C(=O)N[C@H](CCC(=O)O)C(N)=O)NC(=O)[C@H](Cc2ccc(O)cc2)N(C)C(=O)[C@H](Cc2ccc(O)cc2)NC(=O)[C@H](CCCNC(=N)N)NC(=O)[C@H](C)NC(=O)[C@H]([C@@H](C)CC)NC1=O` [compound 291] ({CH2CO}-AV[NMeF]VWNYYIIARY[NMeY]C[dE]-NH2; thioether N-15): the Kd fell in the range of 1 to 100 nM. Still for that read-out and setting: then `CC[C@H](C)[C@@H]1NC(=O)[C@H](Cc2ccc(O)cc2)NC(=O)[C@H](Cc2ccc(O)cc2)NC(=O)[C@H](CC(N)=O)NC(=O)[C@H](Cc2c[nH]c3ccccc23)NC(=O)[C@H](C(C)C)NC(=O)[C@H](Cc2ccccc2)N(C)C(=O)[C@H](C(C)C)NC(=O)[C@H](C)NC(=O)CSC[C@@H](C(N)=O)NC(=O)[C@H](Cc2ccc(O)cc2)N(C)C(=O)[C@H](Cc2ccc(O)cc2)NC(=O)[C@H](CCCNC(=N)N)NC(=O)[C@H](CCCCN)N(C)C(=O)[C@H]([C@@H](C)CC)NC1=O` [compound 292], with 1 to 100 nM.

As for `CC[C@H](C)[C@@H]1NC(=O)[C@H](Cc2ccc(O)cc2)NC(=O)[C@H](Cc2ccc(O)cc2)NC(=O)[C@H](CC(N)=O)NC(=O)[C@H](Cc2c[nH]c3ccccc23)NC(=O)[C@H](C(C)C)NC(=O)[C@H](Cc2ccccc2)N(C)C(=O)[C@H](C(C)C)NC(=O)[C@H](C)NC(=O)CSC[C@@H](C(N)=O)NC(=O)[C@H](Cc2ccc(O)cc2)N(C)C(=O)[C@H](Cc2ccc(O)cc2)NC(=O)[C@H](CCCNC(=N)N)NC(=O)[C@H](CCCCN)NC(=O)[C@H]([C@@H](C)CC)NC1=O` [compound 293], the Kd is 1 to 100 nM. Turning to `CC[C@H](C)[C@@H]1NC(=O)[C@H](Cc2ccc(O)cc2)NC(=O)[C@H](Cc2ccc(O)cc2)NC(=O)[C@H](CC(N)=O)NC(=O)[C@H](Cc2c[nH]c3ccccc23)NC(=O)[C@H](C(C)C)NC(=O)[C@H](Cc2ccccc2)N(C)C(=O)[C@H](C(C)C)NC(=O)[C@H](C)NC(=O)CSC[C@@H](C(N)=O)NC(=O)[C@H](Cc2ccc(O)cc2)N(C)C(=O)[C@H](Cc2ccc(O)cc2)NC(=O)[C@H](CCCNC(=N)N)NC(=O)[C@H](CCCNC(=N)N)NC(=O)[C@H]([C@@H](C)CC)NC1=O` [compound 296], the Kd was 1 to 100 nM.
